Experimental data from patent US20170247393A1, “Aminoisoxazoline Compounds as Agonists of Alpha7-Nicotinic Acetylcholine Receptors” (Forum Pharmaceuticals, Inc., priority 2015, published 2017).
Structures can show the parent of a compound that is named as a salt.

target: T1, human 5-HT3 serotonin receptors (Homo sapiens, UniProt P46098); assay: biochemical; type: binding; conditions: not given
T1 sequence (P46098 24-478): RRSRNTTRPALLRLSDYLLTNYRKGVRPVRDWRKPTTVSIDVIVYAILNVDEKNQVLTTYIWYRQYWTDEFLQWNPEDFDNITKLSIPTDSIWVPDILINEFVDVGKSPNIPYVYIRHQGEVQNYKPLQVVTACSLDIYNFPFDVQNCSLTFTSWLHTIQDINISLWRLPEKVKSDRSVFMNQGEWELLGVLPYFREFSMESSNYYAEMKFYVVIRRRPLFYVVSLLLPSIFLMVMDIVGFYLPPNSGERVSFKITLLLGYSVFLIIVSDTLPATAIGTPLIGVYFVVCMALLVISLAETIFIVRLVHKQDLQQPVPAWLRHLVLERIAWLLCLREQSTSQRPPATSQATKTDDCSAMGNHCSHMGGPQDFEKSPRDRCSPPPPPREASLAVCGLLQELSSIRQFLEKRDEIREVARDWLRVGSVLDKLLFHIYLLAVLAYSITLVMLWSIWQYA

Row | Compound | Ki
1 | c1ccc(NC2=NOC3(C2)CN2CCC3CC2)cc1 (single isomer, unassigned) [Compound 1-P1, N-phenyl-4H-1′-azaspiro[isoxazole-5,3′-bicyclo[2.2.2]octan]-3-amine] | 8.4 nM
2 | Clc1ccc(NC2=NOC3(C2)CN2CCC3CC2)cc1 (single isomer, unassigned) [Compound 20-P1, N-(4-chlorophenyl)-4H-1′-azaspiro[isoxazole-5,3′-bicyclo[2.2.2]octan]-3-amine] | 69 nM
3 | Clc1ccc(NC2=NOC3(C2)CN2CCC3CC2)cc1Cl (single isomer, unassigned) [Compound 21-P1, N-(3,4-dichlorophenyl)-4H-1′-azaspiro[isoxazole-5,3′-bicyclo[2.2.2]octan]-3-amine] | 41.5 nM

same assay, conditions: CHO cell membranes expressing human 5-HT3 receptors, [3H]BRL 43694, 120 min at room temperature; read-out: h-5HT3 Ki

Row | Compound | Ki
4 | c1ccc2c(NC3=NOC4(C3)CN3CCC4CC3)n[nH]c2c1 (racemic) [Compound 5-P1, N-(1H-indazol-3-yl)-4′H-4-azaspiro[bicyclo[2.2.2]octane-2,5′-isoxazol]-3′-amine] | 750 nM
5 | c1ccc2sc(NC3=NOC4(C3)CN3CCC4CC3)cc2c1 (racemic) [rac-12, (+/−)-N-(benzo[b]thiophen-2-yl)-4H-1′-azaspiro[isoxazole-5,3′-bicyclo[2.2.2]octan]-3-amine] | 1800 nM
6 | c1ccc2cc(NC3=NOC4(C3)CN3CCC4CC3)ncc2c1 (single isomer, unassigned) [Compound 2-P2, N-(isoquinolin-3-yl)-4H-1′-azaspiro[isoxazole-5,3′-bicyclo[2.2.2]octan]-3-amine] | 810 nM
7 | c1ccc2sc(NC3=NOC4(C3)CN3CCC4CC3)nc2c1 (single isomer, unassigned) [Compound 3-P2, N-(benzo[d]thiazol-2-yl)-4H-1′-azaspiro[isoxazole-5,3′-bicyclo[2.2.2]octan]-3-amine] | 350 nM
8 | COc1ccc2nc(NC3=NOC4(C3)CN3CCC4CC3)sc2c1 (single isomer, unassigned) [Compound 4-P2, N-(6-methoxybenzo[d]thiazol-2-yl)-4H-1′-azaspiro[isoxazole-5,3′-bicyclo[2.2.2]octan]-3-amine] | > 10000 nM
9 | Clc1ccc2sc(NC3=NOC4(C3)CN3CCC4CC3)nc2c1 (single isomer, unassigned) [Compound 9-P2, N-(5-chlorobenzo[d]thiazol-2-yl)-4H-1′-azaspiro[isoxazole-5,3′-bicyclo[2.2.2]octan]-3-amine] | > 10000 nM
10 | Clc1ccc2nc(NC3=NOC4(C3)CN3CCC4CC3)sc2c1 (single isomer, unassigned) [Compound 10-P2, N-(6-chlorobenzo[d]thiazol-2-yl)-4H-1′-azaspiro[isoxazole-5,3′-bicyclo[2.2.2]octan]-3-amine] | > 10000 nM
11 | c1ccc2oc(NC3=NOC4(C3)CN3CCC4CC3)nc2c1 (single isomer, unassigned) [Compound 13-P1, N-(benzo[d]oxazol-2-yl)-4H-1′-azaspiro[isoxazole-5,3′-bicyclo[2.2.2]octan]-3-amine] | 2400 nM
12 | c1cc2nc(NC3=NOC4(C3)CN3CCC4CC3)sc2cc1C1CC1 (single isomer, unassigned) [Compound 15-P1, N-(6-cyclopropylbenzo[d]thiazol-2-yl)-4H-1′-azaspiro[isoxazole-5,3′-bicyclo[2.2.2]octan]-3-amine] | > 10000 nM
13 | Clc1ccc2cc(NC3=NOC4(C3)CN3CCC4CC3)ncc2c1 (single isomer, unassigned) [Compound 19-P2, N-(7-chloroisoquinolin-3-yl)-4H-1′-azaspiro[isoxazole-5,3′-bicyclo[2.2.2]octan]-3-amine] | > 10000 nM
14 | Clc1cccc2nc(NC3=NO[C@@]4(C3)CN3CCC4CC3)sc12 [(R)-11, (R)—N-(7-chlorobenzo[d]thiazol-2-yl)-4H-1′-azaspiro[isoxazole-5,3′-bicyclo[2.2.2]octan]-3-amine] | 305 nM
15 | Clc1ccc2cnc(NC3=NO[C@@]4(C3)CN3CCC4CC3)cc2c1 [(R)-18, (R)—N-(6-chloroisoquinolin-3-yl)-4H-1′-azaspiroksoxazole-5,3^1-bicyclo[2.2.2]octan1-3-amine hydrochloride] | > 10000 nM
